Assay [1] addresses cellular cGAS activity in dsDNA-stimulated human whole blood (Homo sapiens (Human), UniProt Q8N884). The assay is described as follows: Human whole blood assay (hWB IC50): IFNα2a production after dsDNA transfection.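 Note: IFNα-2a in plasma measured by MSD electrochemiluminescence immunoassay after 22 h at 37 °C, 8-point dilution series from 10 µM top concentration, DMSO wells as controls.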 Type of assay: cell-based. The note with it: Table 1; dsDNA-stimulated human whole blood.
Description: 6.3 Method: Human Whole Blood Assay (Human WB IC50) For the detection of cellular cGAS activity human whole blood was stimulated by transfection with double stranded DNA. Pathway activity was monitored by measuring the IFNα2α production.
Compounds were delivered as 10 mM DMSO solution and serially diluted and transferred to the 96-well cell culture plate (Corning #3595), prefilled with 20 μl OptiMEM (Gibco, #11058-021) in each well, using an Echo acoustic dispenser. Typically, 8 concentrations were used with the highest concentration at 10 μM in the final assay volume followed by ˜1:5 dilution steps. DMSO concentration was set to 0.1% in the final assay volume. The 96-well assay plate contained 10 test compounds, and DMSO in control wells.
Collection of human whole blood from 3 or more healthy donors (male or female, no medication for 7 days except contraceptive and thyroxine) as Na-Citrate blood (e.g. 3.8% in Monovettes from Sarstedt) was conducted in parallel. Whole blood was kept at room temperature for a maximum of 3 hours after collection until use in the assay.
160 μl of the whole blood samples was transferred to each well of the 96-well assay plates filled with compound/OptiMEM. All assay plates were prepared as duplicates with blood from different donors. Blood plates were kept at room temperature for 60 minutes and continuous shaking with 450 rpm, covered with the lid, but not sealed.
20 μl OptiMEM and 9.6:1 Fugene was added to all low control wells.
After covering assay plates with area seals and the lid, blood plates were kept at room temperature for 30 minutes and continuous shaking with 450 rpm, followed by an overnight incubation of 22 h at 37° C. in the incubator, without shaking.
For the detection of IFNα-2a in human plasma, the biotinylated capture antibody (Antibody set IFNA2, Meso Scale Diagnostics #B21VH-3, including coating and capture antibody) was diluted 1:17.5 in Diluent 100 (Meso Scale Diagnostics #R50AA-4), according to the manufacturer's directions. U-Plex MSD GOLD 96-well Small Spot Strepavidin SECTOR Plates (Meso Scale Diagnostics #L45SA-5) were coated with 25 μl diluted capture antibody. Coated plates were incubated for 60 min at room temperature under continuous shaking at 700 rpm. MSD IFNα-2a plates were washed three times with 150 μl wash buffer (1×HBSS, 0.05% Tween).
After blocking the plates with 100 μl block solution/well (1×HBSS with 0.2% Tween, 2% BSA) for 60 min at room temperature and continuous shaking at 700 rpm, plates were emptied as dry as possible by dumping just before continuing with the human plasma.
Whole Blood assay plates were centrifuged at 1600 rpm for 10 minutes. 25 μl of supernatant was transferred with a pipetting robot from each whole blood plate to the corresponding IFNα-2a plate.
Plates were sealed with microplate seals and kept at room temperature again under continuous shaking at 700 rpm for two hours.
Next MSD IFNα-2a plates were washed three times with 150 μl wash buffer (1×HBSS, 0.05% Tween), before adding 25 μl MSD SULFO-TAG IFNα-2a Antibody solution (1:100 diluted in Diluent 3 (Meso Scale Diagnostics #R50AP-2) to each well of the plates.
Afterwards plates were sealed with microplate seals and kept at room temperature again under continuous shaking at 700 rpm for two hours. Finally, MSD IFNα-2a plates were washed three times with 150 μl wash buffer (1×HBSS, 0.05% Tween). 150 μl 2× Read buffer was added to each well and plates were immediately measured with the MSD Sector S600 Reader using the vendor barcode.
For data evaluation and calculation,% control calculation of each well was based on the mean of high (DNA stimulated control) and mean of low (unstimulated control) controls by using the following formula:
The IC50-values were calculated using the standard 4 parameter logistic regression formula.
Assay [2] relates to pathway directly downstream of cGAS in cGAMP-stimulated THP1-Dual cells. The assay is described as follows: cGAMP stimulated counter cell assay (THP1(cGAMP) IC50): IFN induction in cGAMP-stimulated THP1-Dual cells. Type of assay: cell-based, human. The note with it: Table 1; for IC50: Homo sapiens, THP1-Dual, cGAMP-stimulated THP1 cells, read-out: THP(cGAMP) IC50; for Ratio THP(cGAMP) IC50/ THP(vir) IC50: selectivity for cGAS inhibition. An excerpt: 6.2 Method: Human cGAS Cell Assay and cGAMP Stimulated Counter Cell Assay (THP1(vir) IC50 and THP1(cGAMP) IC50)
THP1-Dual™ cells (InvivoGen #thpd-nfis) expressing IRF dependent Lucia luciferase reporter were used as basis for both assays. For the detection of cellular cGAS activity cells were stimulated by a baculovirus (pFastbac-1, Invitrogen, no coding insert) infection that delivers the cGAS enzyme stimulating double-stranded DNA (measurement of THP1(vir) IC50).
For the counter assay, cells were stimulated by cGAMP (SigmaAldrich #SML1232) to activate the identical pathway independent and directly downstream of cGAS (measurement of THP1(cGAMP) IC50). Pathway activity was monitored by measuring the Lucia luciferase activity induced by either DNA stimulated cGAS enzyme activity (measurement of THP1(vir) IC50) or by cGAMP directly (measurement of THP1(cGAMP) IC50, counter assay).
Compounds were delivered in 10 mM DMSO solution, serially diluted and transferred to the 384 well assay plate (Greiner #781201) using an Echo acoustic dispenser. Typically, 8 concentrations were used with the highest concentration at 10 μM in the final assay volume followed by ˜1:5 dilution steps. DMSO concentration was set to 1% in the final assay volume. The 384 well assay plate contained 21 test compounds (column 1-22), and DMSO in column 23 and 24.
Cells, cultivated according to manufacturer conditions, were harvested by centrifugation at 300 g/10 min and were then resuspended and diluted to 1.66E5 cells/ml in fresh cell culture medium (RPMI 1640 (Gibco #A10491-01), 10% FCS (Gibco #10500), 1× GlutaMax (Gibco #35050-061), 1× Pen/Strep solution (Gibco #15140-122), 100 μg/ml Normocin (InvivoGen #ant-nr), 100 μg/ml Zeocin (InvivoGen #ant-zn), 10 μg/ml Blasticidin S (Life Technologies #A11139-03)). The baculovirus solution was then added 1:200 (have varied according to virus batch) to the cells (measurement of THP1(vir) IC50). […] 30 μL of the cell/virus-mix were added to each well of the compound plate from column 1-23 via MultiDrop Combi dispenser (5000 cells/well). In column 24, 30 μl/5000 cells/well without virus were added as a low control.
The plates were then incubated for 18 h at 37° C. in a humidified incubator.
Following that, 15 μL of QuantiLuc detection reagent (InvivoGen #rep-qlcg5) were added to each well using a MultiDrop Combi. Measurement was done immediately after the addition using an EnVision reader (US-luminescence read-mode).
Data Evaluation and Calculation:
For data evaluation and calculation, the measurement of the low control was set as 0% control and the measurement of the high control was set as 100% control. The IC50 values were calculated using the standard 4 parameter logistic regression formula. Calculation: [y=(a−d)/(1+(x/c)^b)+d], a=low value, d=high value; x=conc M; c=IC50 M; b=slope

The next assay deals with Human cGAS enzyme (Homo sapiens (Human), UniProt Q8N884). The assay is described as follows: Human cGAS enzyme assay (hcGAS IC50, in vitro), cGAMP formation by RapidFire MS.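 Note: recombinant human cGAS activated by 45 bp dsDNA with 30 µM each ATP and GTP, 90 min, cGAMP vs cyclic-di-GMP standard by MS, 8-point titration from 10 µM.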 Type of assay: biochemical. The conditions noted are these: Table 1.
Assay [3] deals with cellular cGAS activity in baculovirus-stimulated THP1-Dual cells (Homo sapiens (Human), UniProt Q8N884). The assay is described as follows: Human cGAS cell assay (THP1(vir) IC50): IFN induction in virus-stimulated THP1-Dual cells, IRF Lucia luciferase reporter.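 Note: Eight-point dilution series starting at 10 µM, 1% DMSO, 18 h at 37 °C, luminescence read-out, virus-free wells as 0% and DMSO-treated virus-stimulated wells as 100%.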 Type of assay: cell-based. The conditions noted are these: Table 1; virus-stimulated THP1 cells; read-out: THP(vir) IC50. A general note: In a reporter assay the amount or activity of a reporter protein is the signal.

Data on 13 molecules can be found in patent publication US20240189315A1, “Cyclic Pyridine Derivatives as cGAS Inhibitors” (Boehringer Ingelheim International GmbH, priority 2022, published 2024).

Human cGAS enzyme, sequence (Q8N884 whole entry): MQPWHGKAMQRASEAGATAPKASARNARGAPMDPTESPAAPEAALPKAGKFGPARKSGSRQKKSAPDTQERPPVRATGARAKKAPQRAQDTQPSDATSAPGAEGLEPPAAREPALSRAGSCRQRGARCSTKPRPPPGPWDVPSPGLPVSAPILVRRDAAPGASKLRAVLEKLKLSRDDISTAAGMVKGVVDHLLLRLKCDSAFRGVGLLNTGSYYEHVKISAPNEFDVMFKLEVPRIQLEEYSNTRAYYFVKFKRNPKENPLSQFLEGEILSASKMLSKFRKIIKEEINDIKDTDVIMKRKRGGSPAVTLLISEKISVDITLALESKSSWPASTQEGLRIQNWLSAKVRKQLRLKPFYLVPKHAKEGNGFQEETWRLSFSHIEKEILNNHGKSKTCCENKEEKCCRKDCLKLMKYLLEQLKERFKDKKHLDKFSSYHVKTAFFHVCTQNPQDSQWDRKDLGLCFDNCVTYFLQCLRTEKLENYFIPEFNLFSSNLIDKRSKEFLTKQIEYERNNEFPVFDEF
cellular cGAS activity in baculovirus-stimulated THP1-Dual cells, sequence (Q8N884 whole entry): as above
cellular cGAS activity in dsDNA-stimulated human whole blood, sequence (Q8N884 whole entry): as above

With `C[C@H]1CN2CC[C@]1(F)c1cc(Cl)cnc1O[C@H]1C[C@@H](C(=O)O)N(C1)c1nc(nc3c1oc1ccccc13)COCCCCC2=O` [Example 08, (1R,9S,11S,34S)-4-chloro-1-fluoro-34-methyl-31-oxo-8,15,26-trioxa-6,12,23,32,37-pentaazabestacyclo[30.2.2.1^9,12.1^13,24.0^2,7.0^14,22.0^16,21]octatriaconta-2,4,6,13(37),14(22),16(21),17,19,23-nonaene-11-carboxylic acid], the IC50 – broadly, the midpoint of a concentration-inhibition curve – in assay [1] is 44 nM; in assay [2], more than 10000 nM; at Human cGAS enzyme, 22 nM; in assay [3] it was 140 nM. Further, in assay [2], the “Ratio THP(cGAMP) IC50/ THP(vir) IC50” value amounted to 69.

Consider `C[C@H]1CN2CC[C@]1(F)c1cc(Cl)cnc1O[C@H]1C[C@@H](C(=O)O)N(C1)c1nc(nc3c1oc1ccccc13)C(F)(F)COCCCC2=O` [Example 21, (1R,9S,11S,34S)-4-chloro-1,25,25-trifluoro-34-methyl-31-oxo-8,15,27-trioxa-6,12,23,32,37-penta-azaheptacyclo[30.2.2.1^9,12.1^13,24.0^2,7.0^14,22.0^16,21]octatriaconta-2,4,6,13(37),14(22),16(21),17,19,23-nonaene-11-carboxylic acid], for which the IC50 amounted to 7 nM in assay [1], 10000 nM in assay [2], 5 nM at Human cGAS enzyme and 3 nM in assay [3]. For the same molecule, the “Ratio THP(cGAMP) IC50/ THP(vir) IC50” value in assay [2] is listed as 3281.

Take `C[C@H]1CN2CC[C@]1(F)c1cc(-c3cnn(C)c3)cnc1O[C@H]1C[C@@H](C(=O)O)N(C1)c1nc(nc3c1oc1ccccc13)CCOCCCC2=O` [Example 20.02]: the IC50 was 10 nM in assay [1], 7900 nM in assay [2], 7 nM against Human cGAS enzyme and 8 nM in assay [3]. Moreover, the “Ratio THP(cGAMP) IC50/ THP(vir) IC50” value in assay [2] is 946.

Consider `CC#Cc1cnc2c(c1)[C@@]1(F)CCN(C[C@@H]1C)C(=O)COCCCCc1nc(c3oc4ccccc4c3n1)N1C[C@H](C[C@H]1C(=O)O)O2` [Example 29, (1R,9S,11S,34S)-1-fluoro-34-methyl-31-oxo-4-(prop-1-yn-1-yl)-8,15,29-trioxa-6,12,23,32,37-penta-azaheptacyclo[30.2.2.1^9,12.1^13,24.0^2,7.0^14,22.0^16,21]octatriaconta-2(7),3,5,13,16(21),17,19,22,24(37)-nonaene-11-carboxylic acid], for which the 50% inhibitory concentration (IC50) stood at 22 nM in assay [1], 2200 nM in assay [2], 14 nM at Human cGAS enzyme and 57 nM in assay [3]. The “Ratio THP(cGAMP) IC50/ THP(vir) IC50” value in assay [2] stood at 39.

Consider `C[C@H]1CN2CC[C@]1(F)c1cc(Cl)cnc1O[C@H]1C[C@@H](C(=O)O)N(C1)c1nc(nc3c1oc1cc(F)ccc13)C(F)(F)CCCOCC2=O` [Example 32], for which the IC50 in assay [1] was 9 nM; in assay [2], more than 10000 nM; on Human cGAS enzyme, 5 nM; in assay [3], 8 nM. Moreover, in assay [2], the “Ratio THP(cGAMP) IC50/ THP(vir) IC50” value is 1190.

Regarding `C[C@H]1CN2CC[C@]1(F)c1cc(Cl)cnc1O[C@H]1C[C@@H](C(=O)O)N(C1)c1nc(nc3c1oc1ccccc13)CCCOCC2=O` [Example 37, (1R,9S,11S,33S)-4-chloro-1-fluoro-33-methyl-30-oxo-8,15,28-trioxa-6,12,23,31,36-pentaaza-heptacyclo[29.2.2.1^9,12.1^13,24.0^2,7.0^14,22.0^16,21]heptatriaconta-2,4,6,13(36),14(22),16(21),17,19,23-nonaene-11-carboxylic acid], the 50% inhibitory concentration (IC50) in assay [1] stood at 11 nM; in assay [2] it was 11000 nM; against Human cGAS enzyme it was 3 nM; in assay [3] it was 12 nM. Moreover, the “Ratio THP(cGAMP) IC50/ THP(vir) IC50” value in assay [2] amounted to 884.

For the molecule `C[C@H]1CN2CC[C@]1(F)c1cc(Cl)cnc1O[C@H]1C[C@@H](C(=O)O)N(C1)c1nc(nc3c1oc1ccccc13)COCCOCC2=O` [Example 14], the concentration for half-maximal inhibition (IC50) in assay [1] was 136 nM; in assay [2], more than 10000 nM; against Human cGAS enzyme it was 15 nM; in assay [3], 36 nM. The “Ratio THP(cGAMP) IC50/ THP(vir) IC50” value in assay [2] is 282.

As for `O=C(O)[C@@H]1C[C@H]2CN1c1nc(nc3c1oc1ccccc13)C(F)(F)CCCCCC(=O)N1CCC(F)(CC1)c1cc(Cl)cnc1O2` [Example 07], the half-maximal inhibitory concentration (IC50) in assay [1] was found to be 750 nM; in assay [2], 12000 nM; at Human cGAS enzyme, 100 nM; in assay [3] it was 320 nM. Further, the “Ratio THP(cGAMP) IC50/ THP(vir) IC50” value in assay [2] is reported as 37.

For the molecule `C[C@H]1COCCCc2nc(c3oc4ccccc4c3n2)N2C[C@H](C[C@H]2C(=O)O)Oc2ncc(Br)cc2[C@@]2(F)CCN(C[C@@H]2C)C1=O` [Example 25], the IC50 in assay [1] is 116 nM; in assay [2], 1700 nM; against Human cGAS enzyme, 7 nM; in assay [3], 110 nM. Moreover, the “Ratio THP(cGAMP) IC50/ THP(vir) IC50” value in assay [2] is 16.

For `C[C@H]1CN2CC[C@]1(F)c1cc(Cl)cnc1O[C@H]1C[C@@H](C(=O)O)N(C1)c1nc(nc3c1oc1ccccc13)COCCCC(F)(F)C2=O` [Example 10, (1R,9S,11S,34S)-4-chloro-1,30,30-trifluoro-34-methyl-31-oxo-8,15,26-trioxa-6,12,23,32,37-pentaazaheptacyclo[30.2.2.1^9,12.1^13,24.0^2,7.0^14,22.0^16,21]octatriaconta-2,4,6,13,16,18,20,22,24(37)-nonaene-11-carboxylic acid], the IC50 in assay [1] came to 339 nM; in assay [2] it was 12000 nM; against Human cGAS enzyme, 68 nM; in assay [3], 190 nM. Also, the “Ratio THP(cGAMP) IC50/ THP(vir) IC50” value in assay [2] is 61.

Turning to `C[C@H]1CN2CC[C@]1(F)c1cc(Cl)cnc1O[C@H]1C[C@@H](C(=O)O)N(C1)c1nc(nc3c1oc1ccccc13)CC(=O)NCCCC2=O` [Example 01, (1R,9S,11S,34S)-4-Chloro-1-fluoro-34-methyl-26,31-dioxo-8,15-dioxa-6,12,23,27,32,37-hexaaza-heptacyclo[30.2.2.1^9,12.1^13,24.0^2,7.0^14,22.0^16,21]octatriaconta-2,4,6,13(37),14(22),16(21),17,19,23-nonaene-11-carboxylic acid], the concentration for half-maximal inhibition (IC50) turned out to be 208 nM in assay [1], 2900 nM in assay [2], 25 nM at Human cGAS enzyme and 150 nM in assay [3]. In addition, the “Ratio THP(cGAMP) IC50/ THP(vir) IC50” value in assay [2] is given as 19.

Take `C[C@H]1CN2CC[C@]1(F)c1cc(Br)cnc1O[C@H]1C[C@@H](C(=O)O)N(C1)c1nc(nc3c1oc1ccccc13)CCCCOCC2=O` [Example 28]: the IC50 amounted to 15 nM in assay [1], 1900 nM in assay [2], 7 nM on Human cGAS enzyme and 47 nM in assay [3]. Moreover, in assay [2], the “Ratio THP(cGAMP) IC50/ THP(vir) IC50” value came out at 39.

In the case of `C[C@H]1CN2CC[C@]1(F)c1cc(Cl)cnc1O[C@H]1C[C@@H](C(=O)O)N(C1)c1nc(nc3c1oc1ccccc13)C(F)(F)CCCOCC2=O` [Example 31], the concentration for half-maximal inhibition (IC50) in assay [1] came to 5 nM; in assay [2] it was 7200 nM; on Human cGAS enzyme it was 7 nM; in assay [3] it was 3 nM. Also, the “Ratio THP(cGAMP) IC50/ THP(vir) IC50” value in assay [2] worked out at 3002.
